The text below walks through data of patent EP3057949B1, “SECONDARY ALCOHOL QUINOLINYL MODULATORS OF ROR GAMMA T” (Janssen Pharmaceutica NV, priority 2013, dated 2015).

Test [1] deals with T1, human RORγt ligand binding domain (RORγt LBD) (Homo sapiens, UniProt P51449).
T1 construct: His-tag (N); TurboTEV protease cleavage site (ENLYFQG) (N); made in house; host or cells: E. coli (pHIS1, modified pET vector)
T1 sequence (P51449 258-518): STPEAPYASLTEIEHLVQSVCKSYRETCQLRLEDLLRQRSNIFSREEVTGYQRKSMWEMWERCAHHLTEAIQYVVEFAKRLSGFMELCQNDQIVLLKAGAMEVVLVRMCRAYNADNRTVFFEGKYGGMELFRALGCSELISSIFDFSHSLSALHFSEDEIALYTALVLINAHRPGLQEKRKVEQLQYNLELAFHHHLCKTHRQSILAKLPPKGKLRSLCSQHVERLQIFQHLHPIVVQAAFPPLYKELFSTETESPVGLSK
Nature of the test: ThermoFluor® Assay (RORγt thermal shift binding). To be noted: 0.065 mg/mL RORγt, 60 µM 1,8-ANS, pH 7.0; estimated from concentration response curves. An outline of the steps:
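Thermal shift of 0.065 mg/mL RORγt with 60 µM 1,8-ANS in 100 mM Hepes pH 7.0, 10 mM NaCl, 2.5 mM GSH, 0.002% Tween-20, heated at 1 °C/min; fluorescence at 500 nm. KD estimated from concentration-response of ΔTm.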

In another test the target is T2, human RORγt LBD (Homo sapiens, UniProt P51449).
T2 construct: expressed in transfected cells; host or cells: HEK293T
T2 sequence (P51449 258-518): T1 sequence (P51449 258-518)
Nature of the test: RORγt (LBD) Reporter Assay (GAL4 luciferase, HEK293T cells). The note with it: for IC50: compounds for 24 hours. It is filed as cell-based. An outline of the steps:
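HEK293T cells transiently co-transfected with GAL4 DBD–human RORγt LBD (pBIND, with renilla luciferase control) and GAL4-responsive firefly luciferase reporter, plated in phenol-red free DMEM with 5% lipid-reduced FCS. Compound exposure 24 h; firefly/renilla luminescence ratio plotted against compound concentration.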

Molecules are shown by their SMILES.

What is called Kd is the concentration at which binding is half-saturated. Broadly, the IC50 is the concentration that inhibits the measured activity by half. A higher IC50 goes with weaker potency in that assay. What is called inhibition is the change of the read-out against control, counted positive when it falls. A lower inhibition goes with little suppression.

For `COc1nc2ccc(C(O)c3cnc(C)n3C)cc2c(Cl)c1Cc1ccc(C(F)(F)F)cc1` (single isomer, unassigned) [Example 15c, (4-Chloro-2-methoxy-3-(4-(trifluoromethyl)benzyl)quinolin-6-yl)(1,2-dimethyl-1H-imidazol-5-yl)methanol], in test [1], the Kd is 40 nM. Besides, at human RORγt LBD (6 µM compound, 6 µM), the “RORγt (LBD) Reporter Assay, % inhibition @ 6 µM” value is given as 101%. At human RORγt LBD, this molecule had an IC50 of 80 nM.

With `COc1nc2ccc(C(O)c3cnc(C)n3C)cc2c(Cl)c1Cc1ccc(C(F)(F)F)cc1` (single isomer, unassigned) [Example 15b, (4-Chloro-2-methoxy-3-(4-(trifluoromethyl)benzyl)quinolin-6-yl)(1,2-dimethyl-1H-imidazol-5-yl)methanol], the Kd in test [1] was 69 nM. This molecule registered an inhibition at 6 µM on human RORγt LBD (HEK-293T, 6 µM compound) of 100%. The IC50 at human RORγt LBD is ~1000 nM.
